Experimental data taken from patent publication US8557812B2, “Small molecule inhibitors of anti-apoptotic BCL-2 family members and the uses thereof” (The Regents of the University of Michigan, priority 2004, dated 2013).

Experiments:
human Bcl-xL = human Bcl-xL (Homo sapiens, UniProt Q07817); test: Fluorescence polarization in vitro Bcl-xL binding assay; details: displacement of Flu-Bak peptide
Excerpt: For determination of the binding affinity to Bcl-xL protein a human Bcl-xL recombinant His-tagged protein without the C-terminus hydrophobic tail and the Bak-16mer BH3 peptide labeled with 6-carboxyfluorescein succinimidyl ester (FAM) were used.

Bcl-2 = Bcl-2 (Homo sapiens, UniProt P10415); test: Fluorescence polarization in vitro Bcl-2 binding assay
Description: Bcl-2 used in this assay is a recombinant His-fused soluble protein. […] Inc., Research Triangle Park, N.C.). […] The unlabeled Bid peptide is used as the positive control. The Ki values were calculated using our developed equation for FP assay (Nikolovska-Coleska et al., Anal. Biochem., 2004, in press). The program for calculating a Ki value is available free of charge via the Internet at http://sw16.im.med.umich.edu/software/calc_ki/.

Sequence of human Bcl-xL (Q07817 1-209 limits assumed): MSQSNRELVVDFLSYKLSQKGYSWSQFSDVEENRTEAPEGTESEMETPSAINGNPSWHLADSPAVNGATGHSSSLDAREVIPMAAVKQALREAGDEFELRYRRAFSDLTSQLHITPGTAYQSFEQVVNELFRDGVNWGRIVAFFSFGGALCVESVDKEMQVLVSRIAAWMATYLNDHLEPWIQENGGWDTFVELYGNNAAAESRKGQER
Sequence of Bcl-2 (P10415 92-205 limits assumed): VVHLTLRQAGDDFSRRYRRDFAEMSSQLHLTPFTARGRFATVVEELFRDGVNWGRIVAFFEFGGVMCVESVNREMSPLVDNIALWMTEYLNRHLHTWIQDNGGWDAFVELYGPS

Row | SMILES | IC50 (human Bcl-xL) | IC50 (Bcl-2)
1 | Oc1ccc(Cc2ccc(Oc3ccccc3)cc2)c(O)c1O [TM-157] | > 1000 nM | –
2 | CC(C)c1cc(Cc2ccc(Oc3ccccc3)cc2)c(O)c(O)c1O [TM-159] | > 1000 nM | –
3 | Oc1c(CCc2ccccc2)cc(Cc2ccc(Oc3ccccc3)cc2)c(O)c1O [TM-162] | > 1000 nM | –
4 | Oc1c(CCCc2ccccc2)cc(Cc2ccc(Oc3ccccc3)cc2)c(O)c1O [TM-163] | > 1000 nM | –
5 | O=C(c1cc(C(=O)c2cccc3ccccc23)c(O)c(O)c1O)c1cccc2ccccc12 [TM-174] | > 1000 nM | > 1000 nM
6 | O=C(c1ccc2ccccc2c1)c1cc(C(=O)c2ccc3ccccc3c2)c(O)c(O)c1O [TM-175] | > 1000 nM | > 1000 nM
7 | O=C(c1cc(C(=O)C2N=C3C=CC=CC3S2)c(O)c(O)c1O)C1N=C2C=CC=CC2S1 (stereo not shown) [TM-176] | > 1000 nM | > 1000 nM
8 | COc1c(C(=O)C2N=C3C=CC=CC3S2)cc(C(=O)C2N=C3C=CC=CC3S2)c(O)c1O (stereo not shown) [TM-178] | > 1000 nM | > 1000 nM
9 | O=C(c1ccc(Oc2ccccc2)cc1)c1cc(C(=O)c2nc3ccccc3s2)c(O)c(O)c1O [TM-179] | > 1000 nM | –
10 | O=C(c1ccc(Oc2ccc(S(=O)(=O)N3CCCCC3)c(Cl)c2)cc1)c1cc(C(=O)c2nc3ccccc3s2)c(O)c(O)c1O [TM-180] | > 1000 nM | –
11 | O=C(c1ccc(Oc2ccccc2)cc1)c1cc(C(=O)c2nc3ccccc3o2)c(O)c(O)c1O [TM-183] | > 1000 nM | –
12 | O=C(c1cc(S(=O)(=O)N2CCc3ccc(S(=O)(=O)N4CCCCC4)cc3C2)c(O)c(O)c1O)N1CCc2ccccc2C1 [TM-190] | > 1000 nM | ≤ 1000 nM
13 | O=C(NCc1ccccc1)c1cc(S(=O)(=O)N2CCc3ccc(S(=O)(=O)N4CCCCC4)cc3C2)c(O)c(O)c1O [TM-192] | > 1000 nM | ≤ 1000 nM
14 | O=C(c1cc(S(=O)(=O)N2CCc3ccccc3C2)c(O)c(O)c1O)N1CCc2ccc(S(=O)(=O)N3CCCCC3)cc2C1 [TM-193] | > 1000 nM | > 1000 nM
15 | CC(C)CNS(=O)(=O)c1ccc2c(c1)CN(C(=O)c1cc(S(=O)(=O)N3CCc4ccccc4C3)c(O)c(O)c1O)CC2 [TM-194] | > 1000 nM | > 1000 nM
16 | O=C(c1cc(S(=O)(=O)N2CCc3ccccc3C2)c(O)c(O)c1O)N1CCc2ccc(S(=O)(=O)Nc3ccccc3)cc2C1 [TM-195] | > 1000 nM | > 1000 nM
17 | O=C(c1cc(S(=O)(=O)N2CCc3ccccc3C2)c(O)c(O)c1O)N1CCc2ccc(S(=O)(=O)NCc3ccccc3)cc2C1 [TM-196] | > 1000 nM | > 1000 nM
18 | O=C(c1cc(S(=O)(=O)N2CCc3ccccc3C2)c(O)c(O)c1O)N1CCc2ccc(S(=O)(=O)NCCc3ccccc3)cc2C1 [TM-197] | > 1000 nM | ≤ 1000 nM
19 | O=C(c1cc(S(=O)(=O)N2CCc3ccccc3C2)c(O)c(O)c1O)N1CCc2ccc(S(=O)(=O)NCC(c3ccccc3)c3ccccc3)cc2C1 [TM-198] | > 1000 nM | > 1000 nM
20 | NC(=O)[C@H](Cc1ccccc1)NS(=O)(=O)c1ccc2c(c1)CN(C(=O)c1cc(S(=O)(=O)N3CCc4ccccc4C3)c(O)c(O)c1O)CC2 [TM-199] | > 1000 nM | > 1000 nM
21 | O=C(c1cc(S(=O)(=O)N2CCc3ccccc3C2)c(O)c(O)c1O)N1CCc2ccc(S(=O)(=O)N[C@@H](Cc3ccccc3)C(=O)N3CCCCC3)cc2C1 [TM-1200] | > 1000 nM | > 1000 nM
22 | CN(Cc1ccccc1)S(=O)(=O)c1cc(C(=O)N2CCc3ccc(S(=O)(=O)NCCc4ccccc4)cc3C2)c(O)c(O)c1O [TM-1201] | > 1000 nM | > 1000 nM
23 | O=C(c1cc(S(=O)(=O)N2CCc3ccccc3C2)c(O)c(O)c1O)N1CCc2ccc(S(=O)(=O)N[C@@H](Cc3ccccc3)C(=O)N3CCN(C(=O)C(F)(F)F)CC3)cc2C1 [TM-1202] | > 1000 nM | > 1000 nM
24 | O=C(c1cc(S(=O)(=O)N2CCc3ccccc3C2)c(O)c(O)c1O)N1CCc2ccc(S(=O)(=O)N3CCC(Cc4ccccc4)CC3)cc2C1 [TM-1203] | > 1000 nM | ≤ 1000 nM
25 | CN(CCc1ccccc1)S(=O)(=O)c1cc(C(=O)N2CCc3ccc(S(=O)(=O)NCCc4ccccc4)cc3C2)c(O)c(O)c1O [TM-1205] | > 1000 nM | ≤ 1000 nM
26 | CN(CCc1ccccc1)S(=O)(=O)c1ccc2c(c1)CN(C(=O)c1cc(S(=O)(=O)N3CCc4ccccc4C3)c(O)c(O)c1O)CC2 [TM-1207] | > 1000 nM | ≤ 1000 nM
27 | O=C(c1cc(S(=O)(=O)N2CCc3ccccc3C2)c(O)c(O)c1O)N1CCc2ccc(S(=O)(=O)NCCc3cccc(Cl)c3)cc2C1 [TM-1208] | > 1000 nM | ≤ 1000 nM

Row | SMILES | IC50 (human Bcl-xL) | IC50 (Bcl-2)
28 | CC(C)c1ccccc1Cc1cc(C(=O)Nc2cc(S(=O)(=O)c3ccc(Cl)cc3)ccc2Cl)c(O)c(O)c1O [TW-35, N-[2-Chloro-5-(4-chloro-benzenesulfonyl)-phenyl]-2,3,4-trihydroxy-5-(2-isopropyl-benzyl)-benzamide] | – | > 1000 nM
29 | CC(C)(C)c1ccc(CCc2cc(C(=O)Nc3ccc(S(=O)(=O)c4ccccc4C(C)(C)C)cc3)c(O)c(O)c2O)cc1 [TW-38, N-[(2-tert-Butyl-benzenesulfonyl)-phenyl]-2,3,4-trihydroxy-5-(4-tert-butyl-phenethyl)-benzamide] | – | ≤ 1000 nM
30 | CC(C)(C)c1ccc(Cc2cc(C(=O)Nc3cc(S(=O)(=O)c4ccc(Cl)cc4)ccc3Cl)c(O)c(O)c2O)cc1 [TW-39, N-[2-Chloro-5-(4-chloro-benzenesulfonyl)-phenyl]-2,3,4-trihydroxy-5-(4-tert-butyl-benzyl)-benzamide] | – | > 1000 nM
31 | CC(C)(C)c1ccc(Cc2cc(C(=O)Nc3ccc(S(=O)(=O)c4ccccc4C(C)(C)C)cc3)c(O)c(O)c2O)cc1 [TW-41, N-[4-(2-tert-Butyl-benzenesulfonyl)-phenyl]-2,3,4-trihydroxy-5-(4-tert-butyl-benzyl)-benzamide] | – | > 1000 nM
32 | CC(C)CCCc1ccccc1Cc1cc(C(=O)Nc2ccc(S(=O)(=O)c3ccccc3C(C)(C)C)cc2)c(O)c(O)c1O [TW-42, N-[4-(2-tert-Butyl-benzenesulfonyl)-phenyl]-2,3,4-trihydroxy-5-(2-iso-hexyl-benzyl)-benzamide] | – | > 1000 nM
33 | CCc1cc(C(=O)Nc2cc(S(=O)(=O)c3ccc(Cl)cc3)ccc2Cl)c(O)c(O)c1O [TW-45, N-[2-Chloro-5-(4-chloro-benzenesulfonyl)-phenyl]-2,3,4-trihydroxy-5-ethyl-benzamide] | – | ≤ 1000 nM
34 | O=C(Nc1cc(S(=O)(=O)c2ccc(Cl)cc2)ccc1Cl)c1ccc(O)c(O)c1O [TW-46, N-[2-Chloro-5-(4-chloro-benzenesulfonyl)-phenyl]-2,3,4-trihydroxy-benzamide] | – | ≤ 1000 nM
35 | CC(C)CCCc1cc(C(=O)Nc2cc(S(=O)(=O)c3ccc(Cl)cc3)ccc2Cl)c(O)c(O)c1O [TW-47, N-[2-Chloro-5-(4-chloro-benzenesulfonyl)-phenyl]-2,3,4-trihydroxy-5-iso-hexyl-benzamide] | – | ≤ 1000 nM
36 | CC(C)c1ccccc1Cc1cc(C(=O)Nc2ccccc2)c(O)c(O)c1O [TW-52, N-Phenyl-2,3,4-trihydroxy-5-(2-iso-propyl-benzyl)-benzamide] | – | > 1000 nM
37 | CC(C)c1ccccc1Cc1cc(C(=O)Nc2ccccc2Cl)c(O)c(O)c1O [TW-53, N-(2-Chloro-phenyl)-2,3,4-trihydroxy-5-(2-iso-propyl-benzyl)-benzamide] | – | > 1000 nM
38 | CNC(=O)c1cc(Cc2ccccc2C(C)C)c(O)c(O)c1O [TW-55, N-Methyl-2,3,4-trihydroxy-5-(2-isopropyl-benzyl)-benzamide] | – | > 1000 nM
39 | O=C(Nc1ccc(S(=O)(=O)c2ccccc2)cc1)c1cc(Cc2ccccc2)c(O)c(O)c1O [TW-56, N-(Benzenesulfonyl-phenyl)-2,3,4-trihydroxy-5-benzyl-benzamide] | – | > 1000 nM
40 | CC(C)(C)c1ccccc1S(=O)(=O)c1ccc(NC(=O)c2cc(S(=O)(=O)NCCCc3ccccc3)cc(O)c2O)cc1 [TW-159] | – | ≤ 1000 nM
41 | CC(C)(C)c1ccccc1S(=O)(=O)c1ccc(NC(=O)c2cc(S(=O)(=O)NCCCCc3ccccc3)cc(O)c2O)cc1 [TW-160] | – | > 1000 nM
42 | CC(C)(C)c1ccccc1S(=O)(=O)c1ccc(NC(=O)c2cc(S(=O)(=O)NCCc3ccccc3)cc(O)c2O)cc1 [TW-161] | – | > 1000 nM
43 | O=C(Nc1ccccc1)c1cc(S(=O)(=O)Nc2ccccc2)cc(O)c1O [TW-162] | – | > 1000 nM
44 | O=C(Nc1ccc(S(=O)(=O)N2CCN(c3ccccc3)CC2)cc1)c1cc(S(=O)(=O)N2CCc3ccccc3C2)cc(O)c1O [TW-163] | – | > 1000 nM
45 | O=C(Nc1ccc(S(=O)(=O)N2CCOCC2)cc1)c1cc(S(=O)(=O)N2CCc3ccccc3C2)cc(O)c1O [TW-164] | – | ≤ 1000 nM
46 | COc1ccc(S(=O)(=O)Nc2ccccc2C(C)C)cc1NC(=O)c1cc(S(=O)(=O)N2CCc3ccccc3C2)cc(O)c1O [TW-165] | – | ≤ 1000 nM
47 | O=C(NCCc1ccccc1)c1ccc(C2=Cc3c(c(O)c(O)c(O)c3-c3ccc(-c4ccccc4)cc3)C2=O)cc1 [TW-166] | – | ≤ 1000 nM
48 | CC(C)(C)c1ccc(CCc2cc(O)c(O)c(C(=O)Nc3ccc(S(=O)(=O)N4CCN(c5ccccc5)CC4)cc3)c2)cc1 [TW-167] | – | > 1000 nM
49 | CC(C)(C)c1ccc(CCc2cc(O)c(O)c(C(=O)Nc3ccc(S(=O)(=O)N4CCN(c5ncccn5)CC4)cc3)c2)cc1 [TW-169] | – | ≤ 1000 nM
50 | CC(C)(C)c1ccc(CCc2cc(O)c(O)c(C(=O)Nc3ccc(S(=O)(=O)N4CCC(Cc5ccccc5)CC4)cc3)c2)cc1 [TW-170] | – | > 1000 nM
51 | O=C1C(c2ccc(C(=O)N3CCC(Cc4ccccc4)CC3)cc2)=Cc2c1c(O)c(O)c(O)c2-c1ccc(-c2ccccc2)cc1 [TW-172] | – | ≤ 1000 nM
52 | O=C(Nc1ccc(S(=O)(=O)N2CCC(Nc3ccccc3-c3ccccc3)CC2)cc1)c1cc(S(=O)(=O)N2CCc3ccccc3C2)cc(O)c1O [TW-173] | – | > 1000 nM
53 | CC(C)(C)c1ccccc1NC1CCN(S(=O)(=O)c2ccc(NC(=O)c3cc(S(=O)(=O)N4CCc5ccccc5C4)cc(O)c3O)cc2)CC1 [TW-174] | – | > 1000 nM
